Values quoted from earlier work, collected in US20050250746A1, “Premenstrual dysphoric disorder medication” (priority 2004, published 2005).

Columns and labels:
[1] = system: Severe Premenstrual Syndrome
[2] = system: Premenstrual Syndrome; details: review of published research
[3] = system: Severe Premenstrual Syndrome or Premenstrual Dysphoric Disorder; details: continuous or intermittent dosing

For `Cc1nnc2n1-c1ccc(Cl)cc1C(c1ccccc1)=NC2` [alpazolam, Alprazolam], the “reduction in daily symptom report scores” value ([1]; double-blind, versus placebo) is given as 50%.

In the case of `CC(=O)[C@H]1CC[C@H]2[C@@H]3CCC4=CC(=O)CC[C@]4(C)[C@H]3CC[C@]12C` [progesterone], the “effectiveness of progesterone therapy versus placebo” value ([1]; oral progesterone) is listed as “no better than placebo” and the “difference between progesterone and placebo” value [2] is listed as “no clinically important difference between progesterone and placebo”.

In the case of `CN[C@H]1CC[C@@H](c2ccc(Cl)c(Cl)c2)c2ccccc21` [seratraline, Sertraline], the “improvement versus placebo group” value [3] is given as “improved significantly more than the placebo group”.
